Laboratory results taken from ChEMBL document CHEMBL2380247, “Synthesis and biological evaluation of novel aliphatic amido-quaternary ammonium salts for anticancer chemotherapy: part II” (2013).

Assays:
Assay type in all cases: functional
[1] = system: NUGC-3; experiment: Antiproliferative activity against human NUGC3 cells by SRB assay
[2] = system: PC-3; experiment: Antiproliferative activity against human PC3 cells by SRB assay
[3] = system: MDA-MB-231; experiment: Antiproliferative activity against human MDA-MB-231 cells by SRB assay
[4] = system: PC-3; experiment: Antiproliferative activity against human PC3 cells at 3 uM by SRB assay
[5] = system: PC-3; experiment: Antiproliferative activity against human PC3 cells at 10 uM by SRB assay
[6] = system: NCI-H23; experiment: Antiproliferative activity against human NCI-H23 cells at 0.1 uM by SRB assay
[7] = system: MDA-MB-231; experiment: Antiproliferative activity against human MDA-MB-231 cells at 0.3 uM by SRB assay
[8] = system: PC-3; experiment: Antiproliferative activity against human PC3 cells at 0.3 uM by SRB assay
[9] = system: NUGC-3; experiment: Antiproliferative activity against human NUGC3 cells at 3 uM by SRB assay
[10] = system: NUGC-3; experiment: Antiproliferative activity against human NUGC3 cells at 0.3 uM by SRB assay
[11] = system: HCT-15; experiment: Antiproliferative activity against human HCT15 cells at 0.3 uM by SRB assay
[12] = system: PC-3; experiment: Antiproliferative activity against human PC3 cells at 0.1 uM by SRB assay
[13] = system: ACHN; experiment: Antiproliferative activity against human ACHN cells at 1 uM by SRB assay
[14] = system: MDA-MB-231; experiment: Antiproliferative activity against human MDA-MB-231 cells at 1 uM by SRB assay
[15] = system: ACHN; experiment: Antiproliferative activity against human ACHN cells by SRB assay
[16] = system: NUGC-3; experiment: Antiproliferative activity against human NUGC3 cells at 0.1 uM by SRB assay
[17] = system: ACHN; experiment: Antiproliferative activity against human ACHN cells at 0.1 uM by SRB assay
[18] = system: HCT-15; experiment: Antiproliferative activity against human HCT15 cells by SRB assay
[19] = system: ACHN; experiment: Antiproliferative activity against human ACHN cells at 10 uM by SRB assay
[20] = system: HCT-15; experiment: Antiproliferative activity against human HCT15 cells at 0.1 uM by SRB assay
[21] = system: MDA-MB-231; experiment: Antiproliferative activity against human MDA-MB-231 cells at 10 uM by SRB assay
[22] = system: MDA-MB-231; experiment: Antiproliferative activity against human MDA-MB-231 cells at 3 uM by SRB assay
[23] = system: NCI-H23; experiment: Antiproliferative activity against human NCI-H23 cells at 10 uM by SRB assay
[24] = system: HCT-15; experiment: Antiproliferative activity against human HCT15 cells at 1 uM by SRB assay
[25] = system: HCT-15; experiment: Antiproliferative activity against human HCT15 cells at 10 uM by SRB assay
[26] = system: MDA-MB-231; experiment: Antiproliferative activity against human MDA-MB-231 cells at 0.1 uM by SRB assay
[27] = system: NCI-H23; experiment: Antiproliferative activity against human NCI-H23 cells by SRB assay
[28] = system: NUGC-3; experiment: Antiproliferative activity against human NUGC3 cells at 10 uM by SRB assay
[29] = system: ACHN; experiment: Antiproliferative activity against human ACHN cells at 0.3 uM by SRB assay
[30] = system: NCI-H23; experiment: Antiproliferative activity against human NCI-H23 cells at 1 uM by SRB assay
[31] = system: NCI-H23; experiment: Antiproliferative activity against human NCI-H23 cells at 0.3 uM by SRB assay
[32] = system: PC-3; experiment: Antiproliferative activity against human PC3 cells at 1 uM by SRB assay
[33] = system: NUGC-3; experiment: Antiproliferative activity against human NUGC3 cells at 1 uM by SRB assay
[34] = system: ACHN; experiment: Antiproliferative activity against human ACHN cells at 3 uM by SRB assay
[35] = system: NCI-H23; experiment: Antiproliferative activity against human NCI-H23 cells at 3 uM by SRB assay
[36] = system: HCT-15; experiment: Antiproliferative activity against human HCT15 cells at 3 uM by SRB assay

Row | GI50 [2] | GI50 [3] | GI50 [15] | GI50 [18] | SMILES | GI50 [1] | growth, % of control at 3 µM [4] | growth, % of control at 10 µM [5] | growth, % of control at 0.1 µM [6] | growth, % of control at 0.3 µM [7] | growth, % of control at 0.3 µM [8] | growth, % of control at 3 µM [9] | growth, % of control at 0.3 µM [10] | growth, % of control at 0.3 µM [11] | growth, % of control at 0.1 µM [12] | growth, % of control at 1 µM [13] | growth, % of control at 1 µM [14] | growth, % of control at 0.1 µM [16] | growth, % of control at 0.1 µM [17] | growth, % of control at 10 µM [19] | growth, % of control at 0.1 µM [20] | further results
1 | 440 nM | – | – | – | CCCCCCCCCCCCCCCCCCOP(=O)([O-])OC1CC[N+](C)(C)CC1 [PERIFOSINE] | 540 nM | – | – | – | – | – | – | – | – | – | – | – | – | – | – | – | –
2 | 490 nM | 1380 nM | 1020 nM | 3420 nM | CCCCCCCCCCCCCCCC(=O)N(C)CCC[N+](C)(C)CC | 220 nM | 1.57% | -17.2% | 103% | 97.7% | 101% | -18.5% | 77.8% | 98.3% | 105% | 62.3% | 73.3% | 101% | 95.1% | 15.7% | 95.6% | growth, % of control at 10 µM [21]: 19%; growth, % of control at 3 µM [22]: 47.2%; growth, % of control at 10 µM [23]: -15.5%; growth, % of control at 1 µM [24]: 84.4%; growth, % of control at 10 µM [25]: 40.3%; growth, % of control at 0.1 µM [26]: 98.7%; GI50 [27]: 780 nM; growth, % of control at 10 µM [28]: -37.1%; growth, % of control at 0.3 µM [29]: 95%; growth, % of control at 1 µM [30]: 62.9%; growth, % of control at 0.3 µM [31]: 100%; growth, % of control at 1 µM [32]: 44.6%; growth, % of control at 1 µM [33]: 7.32%; growth, % of control at 3 µM [34]: 41.5%; growth, % of control at 3 µM [35]: 31.2%; growth, % of control at 3 µM [36]: 69.2%
3 | 850 nM | 1350 nM | 1300 nM | > 10000 nM | CCCCCCCCCCCCCCCC(=O)N(C)CCC[N+](C)(C)Cc1ccccc1 | 520 nM | 24.4% | 4.74% | 85.2% | 87.3% | 94.9% | -9.77% | 105% | 96.6% | 87.8% | 79.6% | 87.3% | 110% | 96.9% | -10.8% | 91.2% | growth, % of control at 10 µM [21]: 13.2%; growth, % of control at 3 µM [22]: 41%; growth, % of control at 10 µM [23]: -8.96%; growth, % of control at 1 µM [24]: 96.5%; growth, % of control at 10 µM [25]: 91%; growth, % of control at 0.1 µM [26]: 85.3%; GI50 [27]: 1110 nM; growth, % of control at 10 µM [28]: -29.5%; growth, % of control at 0.3 µM [29]: 90.9%; growth, % of control at 1 µM [30]: 91.6%; growth, % of control at 0.3 µM [31]: 91.3%; growth, % of control at 1 µM [32]: 70.9%; growth, % of control at 1 µM [33]: 50.1%; growth, % of control at 3 µM [34]: 47.9%; growth, % of control at 3 µM [35]: 25%; growth, % of control at 3 µM [36]: 91.4%
